How the values were obtained:
Format in all cases: ADME
Liver microsome [1] = assay: Retention time in human liver microsomes after 30 to 60 mins by mass spectroscopy
Liver microsome [2] = assay: Drug metabolism in human liver microsomes treated with N-desalkylquetiapine at 3 uM after 30 mins by mass spectroscopy; conditions: 0.5 h
Liver microsome [3] = assay: Drug metabolism in human liver microsomes treated with N-desalkylquetiapine at 3 uM after 30 mins by mass spectroscopy in presence of CYP2D6 inhibitor quinidine; conditions: 0.5 h
Liver microsome [4] = assay: Drug metabolism in human liver microsomes treated with N-desalkylquetiapine at 3 uM after 30 mins by mass spectroscopy in presence of CYP3A4 inhibitor ketoconazole; conditions: 0.5 h
Liver microsome [5] = assay: Drug metabolism in human liver microsomes treated with N-desalkylquetiapine at 3 uM after 30 mins by mass spectroscopy in presence of CYP1A2 inhibitor fluvoxamine; conditions: 0.5 h
Liver microsome [6] = assay: Drug metabolism in human liver microsomes treated with N-desalkylquetiapine at 3 uM after 30 mins by mass spectroscopy in presence of CYP2C19 inhibitor benzylnirvanol; conditions: 0.5 h
Liver microsome [7] = assay: Drug metabolism in human liver microsomes treated with N-desalkylquetiapine at 3 uM after 30 mins by mass spectroscopy in presence of CYP2C9 inhibitor sulfaphenazole; conditions: 0.5 h
cytochrome P450 = assay: Activity of cytochrome P450 in human liver microsomes by LC-MS analysis
[8] = Activity of cytochrome P450 in human liver microsomes assessed as 7-hydroxy-N-desalkylquetiapine formation measured as substrate inhibition constant by LC-MS analysis
[9] = Activity of cytochrome P450 in human liver microsomes assessed as metabolite M3 formation by LC-MS analysis
Cytochrome P450 2D6 [10] = molecular target: T1, Cytochrome P450 2D6 (Homo sapiens, UniProt P10635); assay: Activity of human CYP2D6 expressed in supersomes co-expressing cytochrome P450 reductase assessed as metabolite M3 formation after 60 mins by LC-MS analysis; conditions: recombinant enzyme, 1 h
Cytochrome P450 3A4 [11] = molecular target: T2, Cytochrome P450 3A4 (Homo sapiens, UniProt P08684); assay: Activity of human CYP3A4 expressed in supersomes co-expressing cytochrome P450 reductase assessed as metabolite M3 formation after 60 mins by LC-MS analysis; conditions: recombinant enzyme, 1 h
Cytochrome P450 2D6 [12] = molecular target: T1, Cytochrome P450 2D6; assay: Activity of human CYP2D6 expressed in supersomes co-expressing cytochrome P450 reductase assessed as intrinsic clearance per pmol protein by LC-MS analysis; conditions: recombinant enzyme
CYP3A4 = CYP3A4 (Homo sapiens, UniProt P08684); assay: Activity of human CYP3A4 expressed in xenosomes assessed as substrate depletion after 60 mins by LC-MS analysis; conditions: recombinant CYP3A4 expressed in xenosomes, read-out: Drug metabolism
CYP2D6 = CYP2D6 (Homo sapiens, UniProt P10635); assay: Activity of human CYP2D6 expressed in supersomes co-expressing cytochrome P450 reductase assessed as substrate depletion after 60 mins by LC-MS analysis; conditions: read-out: Drug metabolism
Liver microsome [13] = assay: Drug metabolism in human liver microsomes assessed as 7-hydroxy-N-desalkylquetiapine formation at 3 uM after 30 mins by mass spectroscopy; conditions: 0.5 h
Cytochrome P450 3A4 [14] = molecular target: T2, Cytochrome P450 3A4; assay: Activity of human CYP3A4 expressed in supersomes co-expressing cytochrome P450 reductase assessed as N-desalkylquetiapine sulfoxide formation after 60 mins by LC-MS analysis; conditions: recombinant enzyme, 1 h
Cytochrome P450 2D6 [15] = molecular target: T1, Cytochrome P450 2D6; assay: Activity of human CYP2D6 expressed in supersomes co-expressing cytochrome P450 reductase assessed as N-desalkylquetiapine sulfoxide formation after 60 mins by LC-MS analysis; conditions: recombinant enzyme, 1 h
Cytochrome P450 2D6 [16] = molecular target: T1, Cytochrome P450 2D6; assay: Activity of human CYP2D6 expressed in supersomes co-expressing cytochrome P450 reductase assessed as 7-hydroxy-N-desalkylquetiapine formation after 60 mins by LC-MS analysis; conditions: recombinant enzyme, 1 h
Cytochrome P450 3A4 [17] = molecular target: T2, Cytochrome P450 3A4; assay: Activity of human CYP3A4 expressed in xenosomes assessed as intrinsic clearance per pmol protein by LC-MS analysis
Liver microsome [18] = assay: Drug metabolism in human liver microsomes assessed as 7-hydroxy-N-desalkylquetiapine formation at 3 uM after 30 mins by mass spectroscopy in presence of CYP2D6 inhibitor quinidine; conditions: 0.5 h
Liver microsome [19] = assay: Drug metabolism in human liver microsomes assessed as N-desalkylquetiapine sulfoxide formation at 3 uM after 30 mins by mass spectroscopy in presence of CYP3A4 inhibitor ketoconazole; conditions: 0.5 h
Liver microsome [20] = assay: Drug metabolism in human liver microsomes assessed as 7-hydroxy-N-desalkylquetiapine formation at 3 uM after 30 mins by mass spectroscopy in presence of CYP1A2 inhibitor fluvoxamine; conditions: 0.5 h
Liver microsome [21] = assay: Drug metabolism in human liver microsomes assessed as N-desalkylquetiapine sulfoxide formation at 3 uM after 30 mins by mass spectroscopy in presence of CYP2C19 inhibitor benzylnirvanol; conditions: 0.5 h
Liver microsome [22] = assay: Drug metabolism in human liver microsomes assessed as N-desalkylquetiapine sulfoxide formation at 3 uM after 30 mins by mass spectroscopy in presence of CYP2C9 inhibitor sulfaphenazole; conditions: 0.5 h
Liver microsome [23] = assay: Drug metabolism in human liver microsomes assessed as 7-hydroxy-N-desalkylquetiapine formation at 3 uM after 30 mins by mass spectroscopy in presence of CYP2C19 inhibitor benzylnirvanol; conditions: 0.5 h
Liver microsome [24] = assay: Drug metabolism in human liver microsomes assessed as 7-hydroxy-N-desalkylquetiapine formation at 3 uM after 30 mins by mass spectroscopy in presence of CYP2C9 inhibitor sulfaphenazole; conditions: 0.5 h
Liver microsome [25] = assay: Drug metabolism in human liver microsomes assessed as N-desalkylquetiapine sulfoxide formation at 3 uM after 30 mins by mass spectroscopy; conditions: 0.5 h
[26] = Activity of cytochrome P450 in human liver microsomes assessed as N-desalkylquetiapine sulfoxide formation measured as high-affinity/low-capacity binding constant by LC-MS analysis
[27] = Activity of cytochrome P450 in human liver microsomes assessed as N-desalkylquetiapine sulfoxide formation measured as low-affinity/high-capacity binding constant by LC-MS analysis

T1 sequence (P10635 whole entry): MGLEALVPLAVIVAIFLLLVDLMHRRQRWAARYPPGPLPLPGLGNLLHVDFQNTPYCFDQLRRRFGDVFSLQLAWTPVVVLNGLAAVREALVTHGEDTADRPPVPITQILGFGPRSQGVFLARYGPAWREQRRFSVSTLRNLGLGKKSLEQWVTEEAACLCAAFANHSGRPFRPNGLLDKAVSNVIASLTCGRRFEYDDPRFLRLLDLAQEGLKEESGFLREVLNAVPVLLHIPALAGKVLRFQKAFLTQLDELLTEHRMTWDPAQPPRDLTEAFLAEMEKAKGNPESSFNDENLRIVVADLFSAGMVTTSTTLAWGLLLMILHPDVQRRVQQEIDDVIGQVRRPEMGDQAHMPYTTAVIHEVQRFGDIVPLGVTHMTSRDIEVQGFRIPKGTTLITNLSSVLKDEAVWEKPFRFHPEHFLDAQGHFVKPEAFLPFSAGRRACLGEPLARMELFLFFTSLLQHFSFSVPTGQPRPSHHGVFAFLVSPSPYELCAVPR
T2 sequence (P08684 whole entry): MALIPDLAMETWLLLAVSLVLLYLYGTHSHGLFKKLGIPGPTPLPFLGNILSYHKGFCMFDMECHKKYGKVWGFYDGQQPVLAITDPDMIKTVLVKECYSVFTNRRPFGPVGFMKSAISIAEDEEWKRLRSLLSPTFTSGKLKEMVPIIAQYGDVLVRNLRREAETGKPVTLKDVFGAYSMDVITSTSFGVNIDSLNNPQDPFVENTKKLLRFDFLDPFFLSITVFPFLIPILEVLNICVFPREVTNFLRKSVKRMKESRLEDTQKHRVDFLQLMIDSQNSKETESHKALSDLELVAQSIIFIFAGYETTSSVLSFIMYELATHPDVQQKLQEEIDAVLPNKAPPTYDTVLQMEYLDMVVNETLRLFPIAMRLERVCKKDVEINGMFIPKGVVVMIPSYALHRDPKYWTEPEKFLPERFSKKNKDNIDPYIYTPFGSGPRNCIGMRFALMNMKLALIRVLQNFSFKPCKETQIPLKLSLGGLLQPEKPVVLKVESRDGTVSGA
CYP2D6, sequence (P10635 whole entry): as the sequence (P10635 whole entry) above
CYP3A4, sequence (P08684 whole entry): as the sequence (P08684 whole entry) above

Structure (SMILES): [O-][S+]1c2ccccc2N=C(N2CCNCC2)c2ccccc21 (configuration not stated)
- Retention_time (Liver microsome [1]): 3.98 min
- Drug metabolism (Liver microsome [2]): metabolite_detected
- Drug metabolism (Liver microsome [3]): metabolite_not_detected
- Drug metabolism (Liver microsome [4]): metabolite_not_detected
- Drug metabolism (Liver microsome [5]): metabolite_detected
- Drug metabolism (Liver microsome [6]): metabolite_detected
- Drug metabolism (Liver microsome [7]): metabolite_detected

Structure (SMILES): c1ccc2c(c1)N=C(N1CCNCC1)c1ccccc1S2
- Km (cytochrome P450): 110 µM
- Kis [8]: 824 µM
- Km [9]: 199 µM
- Drug metabolism (Cytochrome P450 2D6 [10]): metabolite_detected
- Drug metabolism (Cytochrome P450 3A4 [11]): metabolite_detected
- CL (Cytochrome P450 2D6 [12]): 3 µL/min
- metabolised at 1 h (CYP3A4): 6%
- metabolised at 1 h (CYP2D6): 47%
- Drug metabolism (Liver microsome [13]): metabolite_detected
- Drug metabolism (Cytochrome P450 3A4 [14]): metabolite_detected
- Drug metabolism (Cytochrome P450 2D6 [15]): metabolite_detected
- Drug metabolism (Cytochrome P450 2D6 [16]): metabolite_detected
- CL (Cytochrome P450 3A4 [17]): 0.25 µL/min
- Drug metabolism (Liver microsome [18]): metabolite_not_detected
- Drug metabolism (Liver microsome [19]): metabolite_not_detected
- Drug metabolism (Liver microsome [20]): metabolite_detected
- Drug metabolism (Liver microsome [21]): metabolite_detected
- Drug metabolism (Liver microsome [22]): metabolite_detected
- Drug metabolism (Liver microsome [23]): metabolite_detected
- Drug metabolism (Liver microsome [24]): metabolite_detected
- Drug metabolism (Liver microsome [25]): metabolite_detected
- Km [26]: 15 µM
- Km [27]: 459 µM

Structure (SMILES): Oc1ccc2c(c1)Sc1ccccc1C(N1CCNCC1)=N2
- Retention_time (Liver microsome [1]): 4.31 min
- Drug metabolism (Liver microsome [2]): metabolite_detected
- Drug metabolism (Liver microsome [3]): metabolite_not_detected
- Drug metabolism (Liver microsome [4]): metabolite_not_detected
- Drug metabolism (Liver microsome [5]): metabolite_detected
- Drug metabolism (Liver microsome [6]): metabolite_detected
- Drug metabolism (Liver microsome [7]): metabolite_detected
